Reference: patent US6399562B2, “Solvent compositions” (Ausimont S.p.A., priority 2000, dated 2002)
Like-named read-outs stand apart in the source and are kept apart here.

Experiments:
[1] = Evaluation of the azeotropic behaviour: boiling temperature at 1.013 bar; assay type: physicochemical; conditions: pressure of 1.013 absolute bar
Experimental: The mixture of known composition and weight is introduced into a small glass cell, previously evacuated, having an internal volume equal to about 20 cm^3, equipped with metal connections, feeding valve and with a pressure transducer to evaluate the system vapour pressure.
The filling ratio by volume is initially equal to about 0.8% by v.
The temperature is measured close to the equilibrium cell by a thermometer the accuracy of which is equal to +/−0.01° C.; particular attention has been paid so that the external temperature measured in the bath is really the internal one of the cell.
By changing the composition of the mixture it is possible to evaluate possible deviations with respect to the ideality and therefore to identify the azeotropic composition which, as said, will be characterized by an absolute minimum or maximum with respect to the pure components.

[2] = Removal of oily products from printed circuits, oil (1); conditions: 5 minutes of dipping
Experimental: (§1) The removal capability of oily products from printed circuits has been checked according to the following procedure:
(§2) a known amount of an oily product is uniformly spread on the surface of a printed circuit having 35×9 mm sizes; 0.100 g of oil are placed only on a single surface of the circuit, then the article is dipped into the solution to be tested.
(§3) After 5 minutes of dipping, the circuit is allowed to dry for additional 5 minutes at room temperature so as to remove the solvent traces and then is weighed again on an analytical balance.
[…] The compositions are placed in a vessel equipped with a condenser which recovers the vapour of the boiling solution.
(§4) In all the tests 30 ml of the solvent solution have been used.
(§5) The results are reported in Table 6 and are expressed as removed oil percentage.

[3] = Removal of oily products from printed circuits, oil (2); conditions: 5 minutes of dipping
Experimental: as §1, §2, §3
(§6) Tests of the solvent mixtures are carried out close to the boiling temperature. The compositions are placed in a vessel equipped with a condenser which recovers the vapour of the boiling solution.
as §4, §5

[4] = Removal of oily products from printed circuits, oil (3); conditions: 5 minutes of dipping
Experimental: as §1, §2, §3, §6, §4, §5

[5] = Removal of oily products from printed circuits, oil (4); conditions: 5 minutes of dipping
Experimental: as §1, §2, §3, §6, §4, §5

rat [6] = test: Acute toxicity in rat by os, LD50
rat [7] = test: Acute toxicity in rat by inhalation, LC50
[8] = chemical-physical properties of the hydrofluoropolyether
[9] = Preliminary studies relating to acute toxicity; assay type: in vivo
[10] = background statement; cited from earlier work
[11] = solubility of propellants in solvent compositions for aerosol applications; assay type: physicochemical
Experimental: The solubility of HFC 134a, HFC 227ea and HFC 236ea with some solvent compositions for aerosol applications for the cleaning of electronic components has been studied. The solvent composition is placed in a glass test tube having thick walls, resistant to high pressures, and closed at an end by a metal valve. After cooling, the propellant is fed to the test tube and mixed with the solvent mixture. The system is introduced in a thermostatic bath and heated up to 0°, 25° and 50° C. The complete solubility of the propellant in the solvent composition used for the test has been visually observed. The solubility results of the used propellants in the solvent compositions, at the above three different temperatures, are reported in Table 7.

CCCBr [1-Bromo-propane, 1-bromo-propane]
Boiling T of pure Component B [1]: Boiling T = 69.60 °C

FC(F)(Cl)C(F)(Cl)Cl [CFC 113, 1,1,2-trichloro-1,2,2-trifluoroethane]
Percentage of removed oil, oil type (1) ([2]; 23 ° C.): 100 % by weight
Percentage of removed oil, oil type (1) ([2]; 47 ° C.): 100 % by weight
Percentage of removed oil, oil type (2) ([3]; 23 ° C.): 99.5 % by weight
Percentage of removed oil, oil type (2) ([3]; 47 ° C.): 100 % by weight
Percentage of removed oil, oil type (3) ([4]; 23 ° C.): 100 % by weight
Percentage of removed oil, oil type (3) ([4]; 47 ° C.): 100 % by weight
Percentage of removed oil, oil type (4) ([5]; 23 ° C.): 100 % by weight
Percentage of removed oil, oil type (4) ([5]; 47 ° C.): 100 % by weight
Acute toxicity in rat by os, LD50 (rat [6]): 43,000 ppmv/4 hours
Acute toxicity in rat by inhalation, LC50 (rat [7]): 50,000 ppmv/4 hours
Isotherm evaporation rate at 20° C. [8]: 1 mg/min
Surface tension at 20° C. [8]: 18.1 dynes/cm
Liquid density at 25° C. [8]: 1.56 g/mL
Evaporation latent heat ([8]; at 1.013 bar): 144 kJ/kg
Flammability in air [8]: non

FC(F)OC(F)(F)C(F)(F)OC(F)F [HCF2OCF2CF2OCF2H, 1-difluoromethoxy-1,1,2,2-tetrafluoroethyl difluoromethyl ether]
acute toxicity, biological activity [9]: low biological activity
Acute toxicity in rat by os, LD50 (rat [6]): >5,000 ppmv/4 hours
Acute toxicity in rat by inhalation, LC50 (rat [7]): >32,000 ppmv/4 hours
dehydrofluorination reactions (chemical stability) [8]: does not undergo dehydrofluorination reactions
Isotherm evaporation rate at 20° C. [8]: 0.6 mg/min
Surface tension at 20° C. [8]: 15.5 dynes/cm
Liquid density at 25° C. [8]: 1.60 g/mL
Boiling temperature ([8]; at 1.013 bar): 58.21 °C
Evaporation latent heat ([8]; at 1.013 bar): 139 kJ/kg
Flammability in air [8]: non

CC(F)(Cl)Cl [HCFC 141b]
flammability [10]: moderately flammable

FCC(F)(F)F [HFC 134a, 1,1,1,2-tetrafluoroethane]
solubility of the propellant in the solvent composition ([11]; in HCF2OCF2CF2OCF2H/Bromo-propane (75.0) (25.0), propellant 57.2 % by wt, 0 ° C.): S
solubility of the propellant in the solvent composition ([11]; in HCF2OCF2CF2OCF2H/Bromo-propane (75.0) (25.0), propellant 57.2 % by wt, 25 ° C.): S
solubility of the propellant in the solvent composition ([11]; in HCF2OCF2CF2OCF2H/Bromo-propane (75.0) (25.0), propellant 57.2 % by wt, 50 ° C.): S
solubility of the propellant in the solvent composition ([11]; in HCF2OCF2CF2OCF2H/Isopentane (45.0) (55.0), propellant 51.2 % by wt, 0 ° C.): S
solubility of the propellant in the solvent composition ([11]; in HCF2OCF2CF2OCF2H/Isopentane (45.0) (55.0), propellant 51.2 % by wt, 25 ° C.): S
solubility of the propellant in the solvent composition ([11]; in HCF2OCF2CF2OCF2H/Isopentane (45.0) (55.0), propellant 51.2 % by wt, 50 ° C.): S
solubility of the propellant in the solvent composition ([11]; in HCF2OCF2CF2OCF2H/Methyl-acetate (75.0) (25.0), propellant 51.3 % by wt, 0 ° C.): S
solubility of the propellant in the solvent composition ([11]; in HCF2OCF2CF2OCF2H/Methyl-acetate (75.0) (25.0), propellant 51.3 % by wt, 25 ° C.): S
solubility of the propellant in the solvent composition ([11]; in HCF2OCF2CF2OCF2H/Methyl-acetate (75.0) (25.0), propellant 51.3 % by wt, 50 ° C.): S

FC(C(F)(F)F)C(F)(F)F [HFC 227ea, 1,1,1,2,3,3,3-heptafluoropropane]
solubility of the propellant in the solvent composition ([11]; in HCF2OCF2CF2OCF2H/Methyl-acetate (75.0) (25.0), propellant 53.2 % by wt, 0 ° C.): S
solubility of the propellant in the solvent composition ([11]; in HCF2OCF2CF2OCF2H/Methyl-acetate (75.0) (25.0), propellant 53.2 % by wt, 25 ° C.): S
solubility of the propellant in the solvent composition ([11]; in HCF2OCF2CF2OCF2H/Methyl-acetate (75.0) (25.0), propellant 53.2 % by wt, 50 ° C.): S

FC(F)C(F)C(F)(F)F (centres unmarked) [HFC 236ea, 1,1,1,2,3,3-hexafluoropropane]
solubility of the propellant in the solvent composition [11]: S

COC(C)=O [Methyl-acetate, methyl-acetate]
Boiling T of pure Component B [1]: Boiling T = 55.78 °C
